# Where two headings read alike, the source gives them in different places.
# Legend:
# H2122 = test: Cell viability assay; assay type: cell-based; details: Homo sapiens, NCI-H2122, 24 h; H2122 (Lung); read-out: AZD5991 24h GI50
# Experimental: (§1) Cells were plated at 3000 cells/well in 384-well white plates in corresponding cell growth media. […] Caspase-3/7 activation was subsequently determined using a Caspase-Glo 3/7 Reagent (Promega) and viability was assayed using the CellTiter-Glo Reagent (Promega) as described in manufacturer’s instructions. Dose–response curves for caspase-3/7 activation and viability were plotted and analyzed (including EC50 and GI50 determination) using GraphPad Prism.
# WSUNHL = test: Cell viability assay; assay type: cell-based; details: Homo sapiens, WSU-NHL, 24 h, read-out: AZD5991 24h GI50
# Experimental: as §1
# [1] = test system: Eμ-Myc lymphoma cells stably expressing human Bcl-w; test: Apoptosis induction in Eμ-Myc lymphoma cells; details: overexpression of Bcl-w, 24 h
# From the text: The retroviral plasmids to express human Bcl-2 family members in murine Eμ-Myc lymphoma cells are MSCV-hMCL-1-GFP, MSCV-hBCL-2-GFP, MSCV-hBCL-XL-GFP, MSCV-hBFL-1/A1-GFP, and MSCV-hBCL-w-GFP. To produce viruses, constructs of interest were co-transfected into HEK293T cells with the plasmid encoding the packaging viruses (p-CL-AMPHO provided by Phillip Darcy from Peter MacCallum Cancer Center, Melbourne, Australia) using standard calcium phosphate transient transfection technique. The retroviruses were harvested, filtered and used to infect target cells following standard procedures.
# Samples were then centrifuged, washed twice with PBS and analyzed by flow cytometry in a BD LSRFortessa. FACSDiva software was used for data collection and FlowJo software for data analysis.
# HEL92.1.7 [2] = test: Cell viability assay; assay type: cell-based; details: Homo sapiens, HEL 92.1.7, 24 h; HEL92.1.7 (AML); read-out: AZD5991 24h GI50
# Experimental: as §1
# MONOMAC6 = test: Cell viability assay; assay type: cell-based; details: Homo sapiens, MONO-MAC-6, 24 h; MONOMAC6 (AML); read-out: AZD5991 24h GI50
# Experimental: as §1
# MAVER1 = test: Cell viability assay; assay type: cell-based; details: Homo sapiens, 24 h; MAVER1 (NHL); read-out: AZD5991 24h GI50
# Experimental: as §1
# RPMI8226 = test: Cell viability assay; assay type: cell-based; details: Homo sapiens, RPMI-8226, 24 h; RPMI8226 (MM); read-out: AZD5991 24h GI50
# Experimental: as §1
# NB4 = test: Caspase-3/7 activation assay; assay type: cell-based; details: Homo sapiens, NB-4, 6 h
# Experimental: as §1
# OE21 = test: Cell viability assay; assay type: cell-based; details: 24 h; OE21 (Others); read-out: AZD5991 24h GI50
# Experimental: as §1
# TMD8 = test: Cell viability assay; assay type: cell-based; details: Homo sapiens, 24 h; TMD8 (NHL); read-out: AZD5991 24h GI50
# Experimental: as §1
# H322 = test: Cell viability assay; assay type: cell-based; details: NCI-H322, 24 h; H322 (Lung); read-out: AZD5991 24h GI50
# Experimental: as §1
# Pfeiffer = test: Cell viability assay; assay type: cell-based; details: Homo sapiens, 24 h; Pfeiffer (NHL); read-out: AZD5991 24h GI50
# Experimental: as §1
# 647V = test: Cell viability assay; assay type: cell-based; details: Homo sapiens, 24 h; 647V (Urology); read-out: AZD5991 24h GI50
# Experimental: as §1
# KG1 = test: Caspase-3/7 activation assay; assay type: cell-based; details: Homo sapiens, KG-1, 6 h
# Experimental: as §1
# H2110 = test: Cell viability assay; assay type: cell-based; details: NCI-H2110, 24 h; H2110 (Lung); read-out: AZD5991 24h GI50
# Experimental: as §1
# MOLP-8 tumors = test: MOLP-8 subcutaneous xenograft efficacy; assay type: in vivo
# Experimental: Female C.B.-17 SCID mice and female nude rats were purchased from Charles River Laboratories. […]. All xenograft studies were conducted at our Association for the Assessment and Accreditation of Laboratory Animal Care accredited facility in Waltham, MA in accordance with ethical regulations described in the guidelines established by the internal Institutional Animal Care and Use Committee. […]. In mice, drugs were dosed intravenously in a volume of 5 mL kg^-1 except for venetoclax that was dosed orally in a volume of 10 mL kg^-1. […]. Ten million MV4-11 cells were injected subcutaneously in the right flank of rats in a volume of 0.1 mL. Tumor volumes (measured by caliper), animal body weight, and tumor condition were recorded twice weekly for the duration of the study. The tumor volume was calculated using the formula: length (mm) × width (mm)^2[…]. For efficacy studies, growth inhibition from the start of treatment was assessed by comparison of the differences in tumor volume between control and treated groups. Statistical significance was evaluated using non-parametric, unpaired, two-tailed t-test. For efficacy studies, animals were randomized based on tumor volumes using stratified sampling, and enrolled into control and treatment groups. Dosing began when mean tumor size reached ~230 mm^3 in mice and 900 mm^3 in rats. Mice were euthanized once tumor size reached 2000 mm^3. Mice were excluded from the study upon body weight loss > 10% of the body weight at the initiation of the study. For pharmacokinetic analysis, plasma samples were precipitated and diluted with acetonitrile containing internal standard and analyzed by LC–MS/MS versus a calibration curve of known concentrations.
# Kasumi1 = test: Cell viability assay; assay type: cell-based; details: Homo sapiens, Kasumi 1, 24 h; Kasumi1 (AML); read-out: AZD5991 24h GI50
# Experimental: as §1
# OCILY10 = test: Cell viability assay; assay type: cell-based; details: Homo sapiens, OCI-Ly10, 24 h; OCILY10 (NHL); read-out: AZD5991 24h GI50
# Experimental: as §1
# HEL92.1.7 [3] = test: Caspase-3/7 activation assay; assay type: cell-based; details: Homo sapiens, HEL 92.1.7, 6 h
# Experimental: as §1
# H358 = test: Cell viability assay; assay type: cell-based; details: Homo sapiens, NCI-H358, 24 h; H358 (Lung); read-out: AZD5991 24h GI50
# Experimental: as §1
# MOLP8 = test: Caspase-3/7 activation assay; assay type: cell-based; details: Homo sapiens
# Experimental: as §1
# NCI-H929 = test: Cell viability assay; assay type: cell-based; details: Homo sapiens, 24 h; NCI-H929 (MM); read-out: AZD5991 24h GI50
# Experimental: as §1
# BT549 = test: Cell viability assay; assay type: cell-based; details: Homo sapiens, BT-549, 24 h; BT549 (Breast); read-out: AZD5991 24h GI50
# Experimental: as §1
# [4] = single i.v. dose 60 mg kg^−1, ten days after treatment
compound,measurement,setting,value
"Cc1c2c(nn1C)CSCc1cc(n(C)n1)CSc1cc(c3ccccc3c1)OCCCc1c(C(=O)O)n(C)c3c-2c(Cl)ccc13 (atropisomer, axis not shown; (Ra)) [(Ra)-7]",GI50,H2122,18700 nM
same,GI50,WSUNHL,221 nM
same,apoptosis-inducing activity,[1],blocked
same,GI50,HEL92.1.7 [2],1640 nM
same,GI50,MONOMAC6,226 nM
same,GI50,MAVER1,530 nM
same,GI50,RPMI8226,55 nM
same,EC50,"NB4; read-out: 6h caspase EC50, NB4, single agent",201 nM
same,EC50,"NB4; read-out: AZD5991 6h EC50, NB4 (AML), caspase 3/7 activation",347 nM
same,GI50,OE21,> 30000 nM
same,GI50,TMD8,535 nM
same,GI50,H322,17400 nM
same,GI50,Pfeiffer,3370 nM
same,GI50,647V,22300 nM
same,EC50,"KG1; read-out: 6h caspase EC50, KG1, single agent",> 333 nM
same,EC50,"KG1; read-out: AZD5991 6h EC50, KG1 (AML), caspase 3/7 activation",509 nM
same,GI50,H2110,140 nM
same,"tolerability, body weight","MOLP-8 tumors; all dose levels, 10–100 mg kg^−1 single i.v. dose",no significant body weight loss
same,mice with tumor regression after second dose,"MOLP-8 tumors; single dose 36 days after the first dose, 100 mg kg^−1 i.v., regrown tumors",4 out of 4
same,tumor growth inhibition (TGI),"MOLP-8 tumors; single i.v. dose 10 mg kg^−1, ten days after treatment",52%
same,tumor growth inhibition (TGI),"MOLP-8 tumors; single i.v. dose 30 mg kg^−1, ten days after treatment",93%
same,mice with no detectable tumors,MOLP-8 tumors; [4],6 out of 7
same,tumor regression (TR),MOLP-8 tumors; [4],99%
same,mice with complete TR,"MOLP-8 tumors; single i.v. dose 100 mg kg^−1, ten days after treatment",7 out of 7
same,GI50,Kasumi1,133 nM
same,GI50,OCILY10,119 nM
same,EC50,"HEL92.1.7 [3]; read-out: 6h caspase EC50, HEL9217, single agent",> 333 nM
same,EC50,"HEL92.1.7 [3]; read-out: AZD5991 6h EC50, HEL92.1.7 (AML), caspase 3/7 activation",564 nM
same,GI50,H358,4240 nM
same,EC50,"MOLP8; MOLP-8, 6 h, read-out: AZD5991 6h EC50, MOLP8 (MM), caspase 3/7 activation",57 nM
same,EC50,"MOLP8; MOLP-8, MOLP-8 cells, 0% serum, read-out: caspase-inducing activity EC50",1 nM
same,EC50,"MOLP8; MOLP-8, MOLP-8 cells, 2% serum, read-out: caspase-inducing activity EC50",8 nM
same,EC50,"MOLP8; MOLP-8, caspase activation, Mcl-1-dependent cell line, read-out: MOLP-8, EC50",33 nM
same,EC50,"MOLP8; MOLP-8, mean of log transformed data, read-out: MOLP-8 caspase pEC50 (converted)",33.1 nM
same,GI50,NCI-H929,53 nM
same,GI50,BT549,250 nM
